Measured values from patent US20200297711A1, “PHARMACEUTICAL COMPOSITION COMPRISING FGFR SELECTIVE TYROSINE KINASE INHIBITOR” (priority 2017, published 2020).

Experiments:
[1] = Dose escalation study: tolerability and safety (DLT, MTD, treatment emergent adverse events) of orally administered Compound A 1.5 succinate in patients with solid tumor; type: in vivo
Protocol: The following study was carried out in order to evaluate tolerability and safety when Compound A 1.5 succinate was orally administered to patients with solid tumor. We attempted to determine the maximum tolerated dose (MTD) by evaluating the dose limiting toxicity (DLT) when Compound A 1.5 succinate was orally administered to patients with solid tumor. Each dose in Examples is represented as a dose of Compound A in free form.
A Modified Toxicity Probability Interval (mTPI) design was employed to determine the MTD of Compound A. Each subject was assigned a dose of Compound A in accordance with the rules of the mTPI design based on a target dose-limiting toxicity (DLT) rate of 25% and the corresponding three toxicity probability intervals that was defined as 20 to 30% (proper dosing), 0 to 20% (underdosing) and 30 to 100% (overdosing). The entire dose assignment decision rule can be precalculated under the mTPI design and presented in two-way table as below.
In order to evaluate the PK when administered as a single dose, a single dose of Compound A for each treatment group (at the corresponding dosage for that group) was administered on Day 1. Compound A was administered when fasted, immediately after waking up with at least 10 hours fasting. Taking any meal was prohibited for 2 hours after administration and only drinking water was allowed.
Cycle 1 was started between 8 and 10 days after dosing in Cycle 0 and Compound A was administered continuously once daily. Compound A was administered at least 2 hours after breakfast, and any food intake was prohibited for 1 hour after administration. However, on Day 8 of Cycle 1, Compound A was administered immediately after waking up while the subject was fasted after at least 10 hours of overnight fasting in order to evaluate the PK. Taking any meals was prohibited for 2 hours after administration and only drinking water was allowed.
• (1) Grade 4 neutropenia that persists for more than 7 days or febrile neutropenia • (2) Grade 4 thrombocytopenia or Grade 3 thrombocytopenia that requires blood transfusion • (3) Any Grade 3 or higher non-hematological toxicity with the exception of: • a) Abnormal clinical laboratory values with no clinical significance. • b) Any events which can be managed and controlled to Grade 2 or less by maximal medical management. • (4) New calcification that is considered clinically significance in such as soft tissue, kidney, intestine, heart or lung confirmed by images • (5) Hyperphosphatemia defined as follows • a) >7 mg/dL>7d despite phosphate lowering therapies • b) >9 mg/dL despite phosphate lowering therapies. • (6) Development of any toxicity that is considered to be related to Compound A and where treatment interruption for 8 days or more from Cycle 0 to Cycle 1 is necessary.
The MTD was not defined and the recommended dose was determined to be 140 mg once daily.

[2] = tested on: FGFR2-fusion gene positive intrahepatic cholangiocarcinoma; experiment: Anti-tumor activity, tumor size, patient; type: in vivo, human; conditions: 30 mg once daily, one patient, FGFR2-fusion gene positive (78%)
Protocol: When Compound A was administered once daily at 30 mg to a patient with FGFR2-fusion gene positive (78%) intrahepatic cholangiocarcinoma, the tumor size reduced by about 9%.

[3] = tested on: fibroblast growth factor receptors (FGFRs) 1, 2 and 3; conditions: reported in PTL 1; cited from earlier work

CNC(=O)n1ccc2cc(Oc3ccnc(NC(=O)c4ccc(C5CCN(CCO)CC5)cc4)c3)c(OCCOC)cc21 [Compound A, 5-((2-(4-(1-(2-hydroxyethyl)piperidin-4-yl)benzamide)pyridin-4-yl)oxy)-6-(2-methoxyethoxy)-N-methyl-1H-indole-1-carboxamide]
death or adverse events leading to study drug withdrawal ([1]; all cohorts): No death or adverse events leading to study drug withdrawal were reported
ALP increased, Any Gr, n (%) ([1]; human, in vivo): 3 (13)
AST increased, Any Gr, n (%) ([1]; human, in vivo): 4 (17)
ATL increased, Any Gr, n (%) ([1]; human, in vivo): 6 (25)
ATL increased, ≥Gr3, n (%) ([1]; human, in vivo): 2 (8)
Anaemia, Any Gr, n (%) ([1]; human, in vivo): 3 (13)
Constipation, Any Gr, n (%) ([1]; human, in vivo): 2 (8)
Creatinine increased, Any Gr, n (%) ([1]; human, in vivo): 9 (38)
Decreased appetite, Any Gr, n (%) ([1]; human, in vivo): 2 (8)
Decreased appetite, ≥Gr3, n (%) ([1]; human, in vivo): 1 (4)
Diarrhoea, Any Gr, n (%) ([1]; human, in vivo): 6 (25)
Dysgeusia, Any Gr, n (%) ([1]; human, in vivo): 3 (13)
Hyperphosphatemia, Any Gr, n (%) ([1]; human, in vivo): 9 (38)
Lipase increased, Any Gr, n (%) ([1]; human, in vivo): 5 (21)
Lymphocyte count decreased, Any Gr, n (%) ([1]; human, in vivo): 2 (8)
Malaise, Any Gr, n (%) ([1]; human, in vivo): 2 (8)
Nausea, Any Gr, n (%) ([1]; human, in vivo): 5 (21)
Neutrophil count decreased, Any Gr, n (%) ([1]; human, in vivo): 2 (8)
Neutrophil count decreased, ≥Gr3, n (%) ([1]; human, in vivo): 1 (4)
Onychomadesis, Any Gr, n (%) ([1]; human, in vivo): 2 (8)
PPE syndrome, Any Gr, n (%) ([1]; human, in vivo): 4 (17)
Retinal detachment, Any Gr, n (%) ([1]; human, in vivo): 3 (13)
Stomatitis, Any Gr, n (%) ([1]; human, in vivo): 2 (8)
Vomiting, Any Gr, n (%) ([1]; human, in vivo): 3 (13)
Vomiting, ≥Gr3, n (%) ([1]; human, in vivo): 1 (4)
White blood cell count decreased, Any Gr, n (%) ([1]; human, in vivo): 2 (8)
adverse events leading to dose interruptions: anorexia ([1]; human, in vivo): 2 patients
adverse events leading to dose interruptions: common cold ([1]; human, in vivo): 1 patient
adverse events leading to dose interruptions: macular edema ([1]; human, in vivo): 1 patient
adverse events leading to dose interruptions: nausea ([1]; human, in vivo): 3 patients
adverse events leading to dose interruptions: neutrophil count decreased ([1]; human, in vivo): 1 patient
adverse events leading to dose interruptions: palmar-plantar erythrodysesthesia syndrome ([1]; human, in vivo): 1 patient
adverse events leading to dose interruptions: pyrexia ([1]; human, in vivo): 2 patients
adverse events leading to dose interruptions: vomiting ([1]; human, in vivo): 2 patients
adverse events leading to dose reductions: ALT increased ([1]; human, in vivo): 2 patients
adverse events leading to dose reductions: AST increased ([1]; human, in vivo): 1 patient
adverse events leading to dose reductions: palmar-plantar erythrodysesthesia syndrome ([1]; human, in vivo): 2 patients
dose limiting toxicity (DLT) ([1]; human, in vivo): one patient at 180 mg dosing experienced the DLT (Grade 3 AST/ALT increased)
recommended dose ([1]; human, in vivo): 140 mg
relation of serious adverse events to study drug ([1]; human, in vivo): none of them were considered to be related to Compound A
maximum tolerated dose (MTD) ([1]; once-daily dosing up to 180 mg): not defined
tumor size reduction [2]: about 9%
inhibitory activity on FGFRs 1, 2 and 3 [3]: has an inhibitory activity
